Experimental findings from PubChem BioAssay (NCI) are described below.

Among the test systems are 786-0 renal; A549 NSCLC; COLO 205 colon; HT29 colon; MDA-N; MOLT-4 leukemia; NCI-H23 lung; NCI-H460 lung; NCI-H522 lung; OVCAR-8 ovarian; SNB-19 CNS.
Common to all, as to assay: NCI anticancer screen, dose series, 48 h

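Five concentrations, 48 hours, 96-well plates. Definition used: TGI = concentration required for complete inhibition of growth.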

Turning to `COC(=O)C(Cc1c[nH]c2ccccc12)NC(=O)c1ccc(-c2ccc(Cl)cc2Cl)o1` (configuration not stated), the TGI in the assay on 786-0 renal, in the assay with A549 NSCLC, in the assay with COLO 205 colon, in the assay on HT29 colon, in the assay with MDA-N and in the assay on MOLT-4 leukemia was more than 100 µM throughout. In addition, the TGI in the assay on NCI-H23 lung, in the assay with NCI-H460 lung, in the assay on NCI-H522 lung, with OVCAR-8 ovarian and in the assay on SNB-19 CNS was more than 100 µM in each case.
For the molecule `COC(=O)c1cc(C(=CCC[C@H]2CC[C@@]3(C)C(CCC4C3CC[C@@]3(C)C4CC[C@@H]3C(C)CCCC(C)C)C2)c2cc(Cl)c(O)c(C(=O)OC)c2)cc(Cl)c1O` (some centres not stated), the TGI in the assay on 786-0 renal, in the assay with A549 NSCLC, in the assay on COLO 205 colon, in the assay on HT29 colon, in the assay on MDA-N and in the assay on MOLT-4 leukemia was more than 10 µM in each case. Also, the TGI with NCI-H23 lung, in the assay with NCI-H460 lung, in the assay on NCI-H522 lung, with OVCAR-8 ovarian and with SNB-19 CNS was more than 10 µM each time.
`NC(=O)Cc1nc2c(N)ncnc2n1C1OC(CO)C(O)C1O` (configuration not stated): the TGI with 786-0 renal, in the assay with A549 NSCLC, with COLO 205 colon, in the assay with HT29 colon, in the assay on MDA-N and in the assay on MOLT-4 leukemia was more than 100 µM each time. For the same molecule, the TGI with NCI-H23 lung, with NCI-H460 lung, in the assay on NCI-H522 lung, in the assay with OVCAR-8 ovarian and in the assay with SNB-19 CNS was more than 100 µM each time.
For `CS(=O)(=O)c1ccc(N=C/C=C/Nc2ccc(S(C)(=O)=O)cc2)cc1`, the TGI in the assay on 786-0 renal, in the assay with A549 NSCLC, in the assay on COLO 205 colon, in the assay with HT29 colon, in the assay on MDA-N and in the assay with MOLT-4 leukemia was more than 100 µM in each case. The TGI in the assay with NCI-H23 lung, with NCI-H460 lung, in the assay with NCI-H522 lung, in the assay with OVCAR-8 ovarian and with SNB-19 CNS was more than 100 µM in each case.
As for `N#CC(Cc1ccccc1)N(CCC1=CCCCC1)Cc1ccccc1` (configuration not stated), the TGI was more than 100 µM in the assay with 786-0 renal; more than 100 µM in the assay on A549 NSCLC; 66.4 µM in the assay on COLO 205 colon; more than 100 µM in the assay with HT29 colon; more than 100 µM in the assay with MDA-N; 90.6 µM in the assay on MOLT-4 leukemia. Besides, the TGI was more than 100 µM in the assay on NCI-H23 lung; more than 100 µM in the assay on NCI-H460 lung; 68 µM in the assay with NCI-H522 lung; more than 100 µM with OVCAR-8 ovarian; more than 100 µM in the assay with SNB-19 CNS.
Consider `C/C=C(\C)C(O)C(C)C(O)C/C=C(C)/C=C(\C)C/C(C)=C/C/C=C(\C)C(O)C(C)c1ccc(CCC)c(=O)o1` (configuration not stated), for which the TGI in the assay on 786-0 renal was 55.7 µM; with A549 NSCLC it was 27.8 µM; in the assay on COLO 205 colon, 16.8 µM; with HT29 colon, 3.32 µM; in the assay on MDA-N, 22.8 µM; in the assay on MOLT-4 leukemia it was more than 100 µM. The TGI came to 26.1 µM with NCI-H23 lung; 22.7 µM with NCI-H460 lung; 17.2 µM in the assay with NCI-H522 lung; 48.7 µM with OVCAR-8 ovarian; 42.3 µM in the assay with SNB-19 CNS.
On to `CC(C)[C@H](NC(=O)[C@H](N)Cc1ccc(N(CCCl)CCCl)cc1)C(=O)O`, for which the TGI in the assay on 786-0 renal, in the assay with A549 NSCLC, in the assay with COLO 205 colon, in the assay on HT29 colon, in the assay on MDA-N and in the assay with MOLT-4 leukemia was more than 100 µM in each case. Also, the TGI with NCI-H23 lung, in the assay on NCI-H460 lung, in the assay with NCI-H522 lung, in the assay on OVCAR-8 ovarian and in the assay with SNB-19 CNS was more than 100 µM each time.
Consider `Cn1c(=O)c2c(nc3n2CCCC(=O)N3CC(O)CCl)n(C)c1=O` (configuration not stated), for which the TGI in the assay with 786-0 renal, with A549 NSCLC, in the assay on COLO 205 colon, in the assay with HT29 colon, in the assay with MDA-N and in the assay with MOLT-4 leukemia was more than 100 µM throughout. The TGI with NCI-H23 lung, in the assay on NCI-H460 lung, in the assay on NCI-H522 lung, in the assay on OVCAR-8 ovarian and in the assay with SNB-19 CNS was more than 100 µM throughout.
Consider `CC(C)=CC(Cc1ccccc1)S(=O)(=O)c1nc2ccccc2s1` (configuration not stated), for which the TGI with 786-0 renal turned out to be 33.1 µM; in the assay with A549 NSCLC it was 60.1 µM; with COLO 205 colon, 34.9 µM; with HT29 colon, 41.7 µM; in the assay with MDA-N, 29.7 µM; in the assay on MOLT-4 leukemia, 7.95 µM. Further, the TGI came out at 48.8 µM with NCI-H23 lung; 50.1 µM in the assay with NCI-H460 lung; 29 µM with NCI-H522 lung; 35.1 µM in the assay on OVCAR-8 ovarian; 32 µM in the assay on SNB-19 CNS.
As for `N#Cc1c(N2CCC(O)C2)c2ccccc2n2c1nc1ccccc12` (configuration not stated), the TGI was 50.6 µM in the assay on 786-0 renal; more than 100 µM in the assay on A549 NSCLC; more than 100 µM in the assay with COLO 205 colon; more than 100 µM with HT29 colon; more than 100 µM in the assay on MDA-N; more than 100 µM with MOLT-4 leukemia. Further, the TGI in the assay on NCI-H23 lung, in the assay with NCI-H460 lung, in the assay on NCI-H522 lung, with OVCAR-8 ovarian and in the assay on SNB-19 CNS was more than 100 µM throughout.
For the molecule `O=c1c2cc3c(=O)n4c(cc(-c5ccccc5)c5cc(Cl)ccc54)nc3cc2nc2cc(-c3ccccc3)c3cc(Cl)ccc3n12`, the TGI with 786-0 renal, in the assay with A549 NSCLC, with COLO 205 colon, in the assay on HT29 colon, with MDA-N and in the assay on MOLT-4 leukemia was more than 100 µM throughout. Moreover, the TGI in the assay with NCI-H23 lung, in the assay with NCI-H460 lung, with NCI-H522 lung, in the assay on OVCAR-8 ovarian and in the assay on SNB-19 CNS was more than 100 µM throughout.
As for `CC(C)C(=O)Nc1cc(C(F)(F)F)ccc1[N+](=O)[O-]`, the TGI in the assay on 786-0 renal, in the assay on A549 NSCLC, in the assay with COLO 205 colon, in the assay with HT29 colon, in the assay with MDA-N and with MOLT-4 leukemia was more than 100 µM throughout. Further, the TGI with NCI-H23 lung, in the assay with NCI-H460 lung, in the assay with NCI-H522 lung, in the assay with OVCAR-8 ovarian and in the assay on SNB-19 CNS was more than 100 µM each time.
